Source: patent US10004701B2, “Methods and compositions for treating infection” (UNIVERSITY OF ROCHESTER, priority 2012, dated 2018)
Counter-ions that a name gives are not always drawn. Like-named read-outs stand apart in the source and are kept apart here.

How the values were obtained:
Test in all cases: AK assay 384-well format, Prestwick library screening
E. cloacae = assay type: cell-based, Enterobacter cloacae; conditions: Enterobacter cloacae, 3 h
E. faecium = assay type: cell-based, Enterococcus faecium; conditions: Enterococcus faecium, 3 h
K. pneumoniae = assay type: cell-based, Klebsiella pneumoniae; conditions: Klebsiella pneumoniae, 3 h
E. coli = assay type: cell-based, Escherichia coli; conditions: Escherichia coli, 3 h
P. aeruginosa = assay type: cell-based, Pseudomonas aeruginosa; conditions: Pseudomonas aeruginosa, 3 h
[1] = tested on: A. baumannii strain 98-37-09; assay type: cell-based, Acinetobacter baumannii; conditions: Acinetobacter baumannii, 983709, 3 h
[2] = tested on: S. aureus strain USA300-0114; assay type: cell-based, Staphylococcus aureus; conditions: Staphylococcus aureus, USA300, 3 h
[3] = planktonic E. cloacae, 50 μM final drug concentration, positive cutoff 3-fold increase, read-out: AK-based Prestwick library screening result, E. cloacae (fold increase in extracellular AK activity)
[4] = planktonic E. faecium, 50 μM final drug concentration, positive cutoff 3-fold increase, read-out: AK-based Prestwick library screening result, E. faecium (fold increase in extracellular AK activity)
[5] = planktonic K. pneumoniae, 50 μM final drug concentration, positive cutoff 3-fold increase, read-out: AK-based Prestwick library screening result, K. pneumoniae (fold increase in extracellular AK activity)
[6] = planktonic E. coli, 50 μM final drug concentration, positive cutoff 3-fold increase, read-out: AK-based Prestwick library screening result, E. coli (fold increase in extracellular AK activity)
[7] = planktonic P. aeruginosa, 50 μM final drug concentration, positive cutoff 3-fold increase, read-out: AK-based Prestwick library screening result, P. aeruginosa (fold increase in extracellular AK activity)
[8] = planktonic A. baumannii, 50 μM final drug concentration, positive cutoff 3-fold increase, read-out: AK-based Prestwick library screening result, A. baumannii (fold increase in extracellular AK activity)
[9] = planktonic S. aureus, 50 μM final drug concentration, positive cutoff 3-fold increase, read-out: AK-based Prestwick library screening result, S. aureus (fold increase in extracellular AK activity)
[10] = 50 μM final drug concentration, 384-well format, cutoff for positive-scoring molecules 3-fold increase, read-out: AK-based Prestwick Library Screening Results, E. cloacae (increase in extracellular AK activity)
[11] = 50 μM final drug concentration, 384-well format, cutoff for positive-scoring molecules 3-fold increase, read-out: AK-based Prestwick Library Screening Results, E. faecium (increase in extracellular AK activity)
[12] = 50 μM final drug concentration, 384-well format, cutoff for positive-scoring molecules 3-fold increase, read-out: AK-based Prestwick Library Screening Results, K. pneumoniae (increase in extracellular AK activity)
[13] = 50 μM final drug concentration, 384-well format, cutoff for positive-scoring molecules 3-fold increase, read-out: AK-based Prestwick Library Screening Results, E. coli (increase in extracellular AK activity)
[14] = 50 μM final drug concentration, 384-well format, cutoff for positive-scoring molecules 3-fold increase, read-out: AK-based Prestwick Library Screening Results, P. aeruginosa (increase in extracellular AK activity)
[15] = 50 μM final drug concentration, 384-well format, cutoff for positive-scoring molecules 3-fold increase, read-out: AK-based Prestwick Library Screening Results, A. baumannii (increase in extracellular AK activity)
[16] = 50 μM final drug concentration, 384-well format, cutoff for positive-scoring molecules 3-fold increase, read-out: AK-based Prestwick Library Screening Results, S. aureus (increase in extracellular AK activity)

Structure (SMILES): C[C@]1(OC(=O)/C=C/c2ccccc2)C[C@@H](O)[C@]2(O)C=CO[C@@H](O[C@@H]3O[C@H](CO)[C@@H](O)[C@H](O)[C@H]3O)[C@@H]21 [Harpagoside]
- fold induction at 50 µM (E. cloacae; [3]): 0.9
- fold induction at 50 µM (E. faecium; [4]): 0.9
- fold induction at 50 µM (K. pneumoniae; [5]): 0.7
- fold induction at 50 µM (E. coli; [6]): 0.8
- fold induction at 50 µM (P. aeruginosa; [7]): 0.8
- fold induction at 50 µM [1, 8]: 0.9
- fold induction at 50 µM [2, 9]: 0.8

Structure (SMILES): CC1(C)S[C@@H]2[C@H](NC(=O)[C@H](N)c3ccc(O)cc3)C(=O)N2[C@H]1C(=O)O [Amoxicillin]
- fold induction at 50 µM (E. cloacae; planktonic E. cloacae, 50 μM final drug concentration, cutoff for positive-scoring molecules 3-fold increase, read-out: AK-based Prestwick Library Screening Results, E. cloacae (increase in extracellular AK activity)): 1
- fold induction at 50 µM (E. faecium; planktonic E. faecium, 50 μM final drug concentration, cutoff for positive-scoring molecules 3-fold increase, read-out: AK-based Prestwick Library Screening Results, E. faecium (increase in extracellular AK activity)): 1.4
- fold induction at 50 µM (K. pneumoniae; planktonic K. pneumoniae, 50 μM final drug concentration, cutoff for positive-scoring molecules 3-fold increase, read-out: AK-based Prestwick Library Screening Results, K. pneumoniae (increase in extracellular AK activity)): 0.7
- fold induction at 50 µM (E. coli; planktonic E. coli, 50 μM final drug concentration, cutoff for positive-scoring molecules 3-fold increase, read-out: AK-based Prestwick Library Screening Results, E. coli (increase in extracellular AK activity)): 10.6
- fold induction at 50 µM (P. aeruginosa; planktonic P. aeruginosa, 50 μM final drug concentration, cutoff for positive-scoring molecules 3-fold increase, read-out: AK-based Prestwick Library Screening Results, P. aeruginosa (increase in extracellular AK activity)): 0.7
- fold induction at 50 µM ([1]; planktonic A. baumannii, 50 μM final drug concentration, cutoff for positive-scoring molecules 3-fold increase, read-out: AK-based Prestwick Library Screening Results, A. baumannii (increase in extracellular AK activity)): 1.7
- fold induction at 50 µM ([2]; planktonic S. aureus, 50 μM final drug concentration, cutoff for positive-scoring molecules 3-fold increase, read-out: AK-based Prestwick Library Screening Results, S. aureus (increase in extracellular AK activity)): 0.4

Structure (SMILES): O=C(NCCO[N+](=O)[O-])c1cccnc1 [Nicorandil]
- fold induction at 50 µM (E. cloacae; [10]): 0.9
- fold induction at 50 µM (E. faecium; [11]): 0.9
- fold induction at 50 µM (K. pneumoniae; [12]): 0.8
- fold induction at 50 µM (E. coli; [13]): 0.9
- fold induction at 50 µM (P. aeruginosa; [14]): 0.7
- fold induction at 50 µM [1, 15]: 0.8
- fold induction at 50 µM [2, 16]: 0.6

Structure (SMILES): C[n+]1cc2c3c(ccc2c2ccc4cc5c(cc4c21)OCO5)OCO3 [Sanguinarine]
- fold induction at 50 µM (E. cloacae; planktonic E. cloacae, 50 μM final drug concentration, […], read-out: AK-based Prestwick library screening result, E. cloacae (fold increase in extracellular AK activity)): 0.9
- fold induction at 50 µM (E. faecium; planktonic E. faecium, 50 μM final drug concentration, […], read-out: AK-based Prestwick library screening result, E. faecium (fold increase in extracellular AK activity)): 0.3
- fold induction at 50 µM (K. pneumoniae; planktonic K. pneumoniae, 50 μM final drug concentration, […], read-out: AK-based Prestwick library screening result, K. pneumoniae (fold increase in extracellular AK activity)): 0.2
- fold induction at 50 µM (E. coli; planktonic E. coli, 50 μM final drug concentration, […], read-out: AK-based Prestwick library screening result, E. coli (fold increase in extracellular AK activity)): 0.6
- fold induction at 50 µM (P. aeruginosa; planktonic P. aeruginosa, 50 μM final drug concentration, […], read-out: AK-based Prestwick library screening result, P. aeruginosa (fold increase in extracellular AK activity)): 0.3
- fold induction at 50 µM ([1]; planktonic A. baumannii, 50 μM final drug concentration, […], read-out: AK-based Prestwick library screening result, A. baumannii (fold increase in extracellular AK activity)): 0.7
- fold induction at 50 µM ([2]; planktonic S. aureus, 50 μM final drug concentration, […], read-out: AK-based Prestwick library screening result, S. aureus (fold increase in extracellular AK activity)): 0.1

Structure (SMILES): CC1(C)S[C@@H]2[C@H](NC(=O)Cc3ccccc3)C(=O)N2[C@H]1C(=O)O [Benzylpenicillin sodium]
- fold induction at 50 µM (E. cloacae; [3]): 1.2
- fold induction at 50 µM (E. faecium; [4]): 1.7
- fold induction at 50 µM (K. pneumoniae; [5]): 0.6
- fold induction at 50 µM (E. coli; [6]): 11.3
- fold induction at 50 µM (P. aeruginosa; [7]): 0.7
- fold induction at 50 µM [1, 8]: 2.9
- fold induction at 50 µM [2, 9]: 0.8

Structure (SMILES): Oc1ccc2c3c1O[C@H]1[C@@H](O)CC[C@@]4(O)[C@@H](C2)N(CC2CCC2)CC[C@]314 [Nalbuphine hydrochloride]
- fold induction at 50 µM (E. cloacae; read-out: AK-based Prestwick Library Screening Results, E. cloacae (increase in extracellular AK activity)): 1.2
- fold induction at 50 µM (E. faecium; read-out: AK-based Prestwick Library Screening Results, E. faecium (increase in extracellular AK activity)): 0.9
- fold induction at 50 µM (K. pneumoniae; read-out: AK-based Prestwick Library Screening Results, K. pneumoniae (increase in extracellular AK activity)): 0.7
- fold induction at 50 µM (E. coli; read-out: AK-based Prestwick Library Screening Results, E. coli (increase in extracellular AK activity)): 0.9
- fold induction at 50 µM (P. aeruginosa; read-out: AK-based Prestwick Library Screening Results, P. aeruginosa (increase in extracellular AK activity)): 0.8
- fold induction at 50 µM ([1]; read-out: AK-based Prestwick Library Screening Results, A. baumannii (increase in extracellular AK activity)): 0.9
- fold induction at 50 µM ([2]; read-out: AK-based Prestwick Library Screening Results, S. aureus (increase in extracellular AK activity)): 0.7

Structure (SMILES): COc1ccc([C@@H]2CC(=O)c3c(O)cc(O)cc3O2)cc1O [Hesperetin]
- fold induction at 50 µM (E. cloacae; [10]): 1.3
- fold induction at 50 µM (E. faecium; [11]): 0.9
- fold induction at 50 µM (K. pneumoniae; [12]): 0.9
- fold induction at 50 µM (E. coli; [13]): 1.1
- fold induction at 50 µM (P. aeruginosa; [14]): 0.9
- fold induction at 50 µM [1, 15]: 1.1
- fold induction at 50 µM [2, 16]: 0.5

Structure (SMILES): Cc1ccccc1N1C(=O)c2cc(S(N)(=O)=O)c(Cl)cc2NC1C (stereo not shown) [Metolazone]
- fold induction at 50 µM (E. cloacae; [10]): 1
- fold induction at 50 µM (E. faecium; [11]): 0.8
- fold induction at 50 µM (K. pneumoniae; [12]): 0.6
- fold induction at 50 µM (E. coli; [13]): 0.8
- fold induction at 50 µM (P. aeruginosa; [14]): 0.7
- fold induction at 50 µM [1, 15]: 0.8
- fold induction at 50 µM [2, 16]: 0.7

Structure (SMILES): CN(C)CCOC(=O)COc1ccc(Cl)cc1 [Meclofenoxate hydrochloride]
- fold induction at 50 µM (E. cloacae; 50 μM final drug concentration, planktonic, […], read-out: AK-based Prestwick Library Screening Results, E. cloacae (fold increase in extracellular AK activity)): 1.4
- fold induction at 50 µM (E. faecium; 50 μM final drug concentration, planktonic, […], read-out: AK-based Prestwick Library Screening Results, E. faecium (fold increase in extracellular AK activity)): 1
- fold induction at 50 µM (K. pneumoniae; 50 μM final drug concentration, planktonic, […], read-out: AK-based Prestwick Library Screening Results, K. pneumoniae (fold increase in extracellular AK activity)): 1
- fold induction at 50 µM (E. coli; 50 μM final drug concentration, planktonic, […], read-out: AK-based Prestwick Library Screening Results, E. coli (fold increase in extracellular AK activity)): 1.2
- fold induction at 50 µM (P. aeruginosa; 50 μM final drug concentration, planktonic, […], read-out: AK-based Prestwick Library Screening Results, P. aeruginosa (fold increase in extracellular AK activity)): 1.1
- fold induction at 50 µM ([1]; 50 μM final drug concentration, planktonic, […], read-out: AK-based Prestwick Library Screening Results, A. baumannii (fold increase in extracellular AK activity)): 1
- fold induction at 50 µM ([2]; 50 μM final drug concentration, planktonic, […], read-out: AK-based Prestwick Library Screening Results, S. aureus (fold increase in extracellular AK activity)): 1.2

Structure (SMILES): CC(C)C(=O)Nc1ccc([N+](=O)[O-])c(C(F)(F)F)c1 [Flutamide]
- fold induction at 50 µM (E. cloacae; 50 μM final drug concentration, 384-well format, […], read-out: AK-based Prestwick Library Screening Results, E. cloacae (increase in extracellular AK activity)): 0.7
- fold induction at 50 µM (E. faecium; 50 μM final drug concentration, 384-well format, […], read-out: AK-based Prestwick Library Screening Results, E. faecium (increase in extracellular AK activity)): 1
- fold induction at 50 µM (K. pneumoniae; 50 μM final drug concentration, 384-well format, […], read-out: AK-based Prestwick Library Screening Results, K. pneumoniae (increase in extracellular AK activity)): 0.6
- fold induction at 50 µM (E. coli; 50 μM final drug concentration, 384-well format, […], read-out: AK-based Prestwick Library Screening Results, E. coli (increase in extracellular AK activity)): 0.7
- fold induction at 50 µM (P. aeruginosa; 50 μM final drug concentration, 384-well format, […], read-out: AK-based Prestwick Library Screening Results, P. aeruginosa (increase in extracellular AK activity)): 0.8
- fold induction at 50 µM ([1]; 50 μM final drug concentration, 384-well format, […], read-out: AK-based Prestwick Library Screening Results, A. baumannii (increase in extracellular AK activity)): 0.7
- fold induction at 50 µM ([2]; 50 μM final drug concentration, 384-well format, […], read-out: AK-based Prestwick Library Screening Results, S. aureus (increase in extracellular AK activity)): 0.4
